Results on three compounds are retold here after publication PMC3338766 (2012).

Experiment [1] relates to d(T2G8) (DNA, G4) GGGGTTGGGG
The experiment can be described thus: ITC. To be noted: K+ (100 mM KCl, 30 mM potassium phosphate); pH 7.0, 25 °C; two-sites model; site 1 of 2.

The subject of experiment [2] is d(T2G8) (DNA, G4) GGGGTTGGGG
Kind of experiment: SYBR Green fluorescence melting. The following applies: K+ (100 mM KCl, 30 mM potassium phosphate), 5 µM quadruplex, 1× SYBR Green, ligand concentration not stated.

For experiment [3], the system named is d(T2G8) (DNA, G4) GGGGTTGGGG
Kind of experiment: ESI-MS, relative binding affinity. The following applies: 50 mM ammonium acetate; residual K+; 10 nM quadruplex and ligand, 10% methanol; intensity-derived index, not a constant.

In experiment [4] the test system is d(T2G8) (DNA, G4) GGGGTTGGGG
The experiment can be described thus: UV-Vis titration (soret shift 424–434 nm, 38.2% hypochromicity). The following applies: K+ (100 mM KCl, 30 mM potassium phosphate); 5 µM TMPyP4, 25 °C.

On to `COc1cc2c(cc1OCCCC(=O)Nc1ccc3ccc4cccc5ccc1c3c45)N=C[C@@H]1CCCN1C2=O`, for which, in experiment [1], the K1 is given as 0.0597 (±0.01) × 10^8. Besides, the Tm in experiment [2] (Tm 43 to 36 °C, derived from two Tm) was -7 °C. The same compound had an IRa in experiment [3] of 0.45.
On to `COc1cc2c(cc1OCCCCCOc1cc3c(cc1OC)C(=O)N1CCC[C@H]1C(=O)N3)N=C[C@@H]1CCCN1C2=O`, for which the K1 in experiment [1] is given as 0.0875 (±0.03) × 10^8. For the same compound, the Tm in experiment [2] (Tm 43 to 49 °C) was ~ 6 °C. Besides, in experiment [3], the IRa is given as 0.67.
Regarding `C[n+]1ccc(-c2c3nc(c(-c4cc[n+](C)cc4)c4ccc([nH]4)c(-c4cc[n+](C)cc4)c4nc(c(-c5cc[n+](C)cc5)c5ccc2[nH]5)C=C4)C=C3)cc1`, in experiment [3], the IRa was 0.18. Further, the binding result in experiment [4] is listed as “yes”.
